{"source": "the NIST ThermoML archive (doi:10.1021/acs.jced.7b00999)", "conditions": "Liquid, Ebulliometric method (Recirculating still)", "note": "Numbers after ± are expanded uncertainties.", "data": [{"smiles": "CCC(C)OC(C)=O", "note": "(stereo not drawn) [1-methylpropyl ethanoate]", "values": [{"measurement": "vapor or sublimation pressure", "setting": "385.15 K", "value": "101.3 ± 1", "unit": "kPa"}]}, {"smiles": "CCCCCCC", "note": "[heptane]", "values": [{"measurement": "vapor or sublimation pressure", "setting": "371.58 K", "value": "100 ± 1", "unit": "kPa"}]}, {"smiles": "CC1CCCCC1", "note": "[methylcyclohexane]", "values": [{"measurement": "vapor or sublimation pressure", "setting": "374.08 K", "value": "101.3 ± 1", "unit": "kPa"}]}]}
